According to patent publication US11311522B1 (Cavion, Inc., priority 2018, dated 2022):
Like-named read-outs stand apart in the source and are kept apart here.

How the values were obtained:
[1] = in vivo; details: female, rat, po
[2] = Simulated Css and total active moiety, 10 mg BID; set-up: species or system human; details: for Css, estimated mean / Steady-state AUC24, estimated mean: CX-8998 10 mg twice daily fasted; for Cu, ss_adj: adjusted for fu and potency, 10 mg BID; for Cp, ss / Cu, ss: simulated from CX-8998 10 mg BID
[3] = clinical; details: human, plasma, oral, 8 mg
Text: Subjects will be screened for study eligibility within 28 days before administration of the first dose of study drug. Subjects who meet the study eligibility criteria will be admitted to the clinical research unit in the afternoon of the day before administration of the first dose of study drug (Period 1/Day −1).
Treatments A, B, and C will be separated by a minimum 7-day washout period. […] Administration of Treatment D may be separated from administration of Treatments A, B, and C by approximately 4 weeks to allow for analysis of the bioanalytical samples from the first 3 treatments.

[4] = tested on: WAG/Rij rats; experiment: WAG/Rij rat model of absence epilepsy; format: in vivo; details: for Percent of inhibition: 10 mg/kg oral
Text: Other T-type antagonists from structurally diverse series have shown similar efficacy in this model (Broicher, 2007; Blumenfeld, 2008; Broicher, 2008; Shipe, 2008; Yang, 2008; Uebele, 2009; Russo, 2010; Russo, 2011).
Data were scored with automated seizure analysis software, averaged, and normalized to enable treatment comparisons (FIG. 76)
Control animals received vehicle administrations. […] Source: Merck TTA Package Description (FIG. 79).

[5] = Pharmacokinetics in rats; format: in vivo, rat; details: for AUC: read-out: AUC24
Description: The validity and reproducibility of the assays were determined, and the precision and accuracy for calibration standards and quality control samples were examined. […] The analytes were stable in plasma under the storage and assay conditions. […] Assay performances were satisfactory and met acceptance criteria for system performance suitability, quantitation range, calibration linearity, assay accuracy and precision, and assay recovery.

[6] = PN005: safety and tolerability; format: in vivo, human
Text: The visual disturbances tended to cease with eye opening and to recur with eye closure and were generally not disturbing to the subjects. […] No serious adverse events were reported, and none of the subjects discontinued treatment because of an adverse event. […] 5.3.3.1.3.2 Other Safety Assessments No clinically significant trends in safety laboratory parameters or vital signs were observed. […] No changes of ≥60 msec from baseline occurred, and no subject has a QTc interval ≥500 msec. […] The most common adverse events were headache, vivid dreams, and visual and/or auditory disturbances or hallucinations (typically described as seeing geometric shapes, colors, lights, and/or movement and hearing tones like from a telephone or electronic music). […] Clinical safety was monitored throughout the study by adverse events, clinical laboratory tests, vital signs, ECGs, and ECG telemetry.

[7] = Off-target panel of enzyme and receptor binding sites, ion channels, transporters; details: 10 μM
[8] = in vivo; details: Beagle, dog, in vivo, po
[9] = In vitro plasma protein binding, human; format: in vitro ADME
[10] = Single-dose toxicokinetic study in dogs; format: in vivo; details: dog, plasma, po, 800 mg/kg
[11] = target: T1, CYP2C9 (Homo sapiens, UniProt P11712); experiment: In vitro metabolism (liver microsomes, hepatocytes, recombinant CYPs, anti-CYP antibodies); format: in vitro ADME; details: recombinant CYP2C9
T1 construct: host or cells: pooled liver microsomes, hepatocytes and recombinant CYP enzymes
Text: (§1) Glucuronide conjugates of the oxygenated metabolites are detected in human, monkey, and dog hepatocyte preparations. […] However, the abundance of CYP3A5, CYP2C19, and CYP2D6 in human liver microsomes is low (2%-5%) relative to the primary contributors, CYP3A4 (˜30%) and CYP2C9 (˜20%). […] Information on reproductive and developmental toxicology was obtained in a 28-day pivotal female fertility study in rats and in preliminary embryo-fetal development studies in rats and rabbits.

[12] = tested on: CYP2B6; experiment: CYP2B6 mRNA induction in human hepatocytes; format: in vitro ADME
Text: as §1

[13] = Brain penetration in male rats; format: in vivo; details: rat, brain and plasma, oral, 25 mg/kg, read-out: Brain-to-plasma ratio
[14] = T-CALM: plasma concentrations by 5-in-1 LC/MS/MS; format: in vivo, human; details: for Plasma concentration, mean: trough
Description: Additionally, at Visit 4, a post-dose sample will be collected as close to 4 hours post-dose as possible, but within the window of 4-6 hours post-dose (i.e., a total of two PK samples are collected at Visit 4.)
Assay performances were satisfactory and met acceptance criteria for system performance suitability, quantitation range, calibration linearity, assay accuracy and precision, and assay recovery.

[15] = in vivo; details: female, rat, po, 10 mg/kg/day
[16] = Phase 1 multiple-dose pharmacokinetics (PN002/Part II); details: human, plasma
[17] = Rat, IV 2 mg/kg, mean of 2 animals
[18] = single dose 8 mg, N = 7, middle-aged and elderly female subjects, Study PN005
[19] = human plasma, read-out: In vitro plasma protein binding (converted)
[20] = humans, read-out: free fraction
[21] = M02, middle-aged and elderly men
[22] = M02, middle-aged and elderly women

T1 sequence (P11712 whole entry): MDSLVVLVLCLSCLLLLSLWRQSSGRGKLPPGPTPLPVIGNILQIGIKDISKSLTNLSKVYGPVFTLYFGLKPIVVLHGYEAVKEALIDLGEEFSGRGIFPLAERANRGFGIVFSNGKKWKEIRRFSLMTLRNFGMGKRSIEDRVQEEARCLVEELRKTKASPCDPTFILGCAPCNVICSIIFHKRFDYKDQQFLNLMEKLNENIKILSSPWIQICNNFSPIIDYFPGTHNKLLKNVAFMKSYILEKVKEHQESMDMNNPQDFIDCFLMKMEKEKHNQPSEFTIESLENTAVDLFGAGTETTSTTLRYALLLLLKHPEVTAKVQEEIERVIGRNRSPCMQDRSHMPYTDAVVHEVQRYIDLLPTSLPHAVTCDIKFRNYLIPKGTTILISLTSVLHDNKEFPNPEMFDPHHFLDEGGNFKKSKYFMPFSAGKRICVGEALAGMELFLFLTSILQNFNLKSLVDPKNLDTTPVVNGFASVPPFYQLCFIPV

CC(C)c1ccc(CC(=O)N[C@H](C)c2ccc(OCC(F)(F)F)cn2)cc1 [CX-8998]
AUC ([1]; 10 mg/kg/day): 20.7 µM·h | Tmax ([1]; 10 mg/kg/day): 3.4 h | AUC ([1]; 100 mg/kg/day): 94.6 µM·h | AUC ([1]; 500 mg/kg/day): 219 µM·h | Tmax ([1]; 500 mg/kg/day): 4.8 h | Css, estimated mean ([2]; middle-aged and elderly men): 874 nM | Steady-state AUC24, estimated mean ([2]; middle-aged and elderly men): 20.976 µM·h | Css, estimated mean ([2]; middle-aged and elderly women): 981 nM | Steady-state AUC24, estimated mean ([2]; middle-aged and elderly women): 23.544 µM·h | Css, estimated mean ([2]; young men): 583 nM | Steady-state AUC24, estimated mean ([2]; young men): 13.992 µM·h | Cu, ss_adj [2]: 2.3 nM | Cp, ss [2]: 583 nM | Cu, ss [2]: 2.3 nM | AUC(0-t) [3]: 7.49 µM·h | Reduction in cumulative time spent in seizure ([4]; 1 mg/kg, 4 hours after dosing): 55% | Suppression of seizure frequency ([4]; 10 mg/kg): up to 50% | Percent of inhibition [4]: 77% | Suppression of accumulated time in seizure ([4]; 10 mg/kg, 4 hours after dosing): 77% | Suppression of accumulated time in seizure ([4]; 10 mg/kg, 15 hours after dosing): 54% | CL [5, 17]: 29 mL/min/kg | t½ [5, 17]: 0.8 h | F ([5]; Rat, oral 10 mg/kg vs IV 2 mg/kg, mean (SD)): 42 (13) % | Plasma clearance ([5]; rat, in vivo): 29 mL/min/kg | half-life ([5]; rat, in vivo): 0.8 h | bioavailability ([5]; rat, plasma, po, 10 mg/kg, single dose): 42% | t½ ([5]; rodents): 0.8 h | Tolerability ([6]; single 8 mg dose): well tolerated | Alanine aminotransferase increased [6, 18]: 1 (14.3) n (%) | At least 1 adverse event [6, 18]: 6 (85.7) n (%) | Dry mouth [6, 18]: 1 (14.3) n (%) | Eye Disorders [6, 18]: 1 (14.3) n (%) | Gastrointestinal Disorders [6, 18]: 3 (42.9) n (%) | Hot flush [6, 18]: 1 (14.3) n (%) | Hypoaesthesia oral [6, 18]: 1 (14.3) n (%) | Inappropriate laughter [6, 18]: 2 (28.6) n (%) | Infections and Infestations [6, 18]: 1 (14.3) n (%) | Investigations [6, 18]: 1 (14.3) n (%) | Irritability [6, 18]: 1 (14.3) n (%) | Nausea [6, 18]: 1 (14.3) n (%) | Nervousness [6, 18]: 1 (14.3) n (%) | Psychiatric Disorders [6, 18]: 4 (57.1) n (%) | Racing thoughts [6, 18]: 1 (14.3) n (%) | Shingles [6, 18]: 1 (14.3) n (%) | Vascular Disorders [6, 18]: 1 (14.3) n (%) | Vision blurred [6, 18]: 1 (14.3) n (%) | Vomiting [6, 18]: 1 (14.3) n (%) | Off-target effects ([7]; over 170 targets): No off-target effects | AUC ([8]; female, 300 mg/kg/day): 2080 µM·h | Cmax ([8]; female, 300 mg/kg/day): 158000 nM | AUC ([8]; male, 3 mg/kg/day): 62.5 µM·h | Cmax ([8]; male, 3 mg/kg/day): 8400 nM | Cmax ([8]; male, 30 mg/kg/day): 73500 nM | Cmax ([8]; male, 300 mg/kg/day): 253000 nM | fraction unbound ([9]; human plasma, read-out: Human-free fraction): 0.004 | fraction unbound [9, 19]: ~0.004 | fraction unbound [9, 20]: 0.004

C[C@@H](NC(=O)Cc1ccc(C(C)(C)O)cc1)c1ccc(OCC(F)(F)F)cn1 [M02]
Tmax ([10]; female): 8 h | Tmax ([10]; male): 8 h | KM for CYP2C9 reactions (formation) [11]: ~3 µM | CYP2B6 induction [12]: mild to moderate inducers | Css, estimated mean [2, 21]: 683 nM | Steady-state AUC24, estimated mean [2, 21]: 15.312 µM·h | Css, estimated mean [2, 22]: 566 nM | Steady-state AUC24, estimated mean [2, 22]: 13.584 µM·h | Css, estimated mean ([2]; M02, young men): 343 nM | Steady-state AUC24, estimated mean ([2]; M02, young men): 8.232 µM·h | Cu, ss_adj [2]: 10.1 nM | Cp, ss [2]: 343 nM | Cu, ss [2]: 48 nM | AUC(0-t) [3]: 3.67 µM·h | Cmax [3]: 122 nM | Kp at 2 h [13]: 0.32 | Plasma concentration, mean ([14]; Visit 2 (Day 8), 4 mg BID): 168 nM | Plasma concentration, mean ([14]; Visit 3 (Day 15), 8 mg BID): 325 nM | Plasma concentration, mean ([14]; Visit 4 (Day 28), 10 mg BID): 406 nM | concentration at 4 h ([14]; human, plasma, oral, Visit 4 (Day 28), 10 mg BID, 4 hours post-dose): 438 nM | Percent of inhibition [4]: 67% | AUC [15]: 31.7 µM·h | Cmax [15]: 5400 nM | AUC ([5]; female, rat, plasma, po, 10 mg/kg): 31 µM·h | AUC ([5]; male, rat, plasma, po, 10 mg/kg): 10 µM·h | Off-target effects (≥50% inhibition or stimulation) ([7]; 87 targets): No significant results | half-life ([16]; 2 mg): 15 h | AUC ([16]; 2 mg, AUC24, M02, Day 7, CX-8998 2 mg once daily): 0.93 µM·h | Cmax ([16]; 2 mg, M02, Day 7, CX-8998 2 mg once daily): 54 nM | half-life ([16]; 4 mg): 15.4 h | AUC ([16]; 4 mg, AUC24, M02, Day 7, CX-8998 4 mg once daily): 1.86 µM·h | Cmax ([16]; 4 mg, M02, Day 7, CX-8998 4 mg once daily): 106 nM | half-life ([16]; 8 mg): 12.2 h | AUC ([16]; 8 mg, AUC24, M02, Day 7, CX-8998 8 mg once daily): 3.54 µM·h | Cmax ([16]; 8 mg, M02, Day 7, CX-8998 8 mg once daily): 219 nM | half-life ([16]; 12 mg): 14.5 h | AUC ([16]; 12 mg, AUC24, M02, Day 7, CX-8998 12 mg once daily): 4.55 µM·h | Cmax ([16]; 12 mg, M02, Day 7, CX-8998 12 mg once daily): 287 nM | half-life ([16]; 18 mg): 12.8 h | AUC ([16]; 18 mg, AUC24, M02, Day 7, CX-8998 18 mg once daily): 7.97 µM·h | Cmax ([16]; 18 mg, M02, Day 7, CX-8998 18 mg once daily): 481 nM | half-life ([16]; male, oral): 12.2 to 15.4 h | fraction unbound [9, 19]: 0.14 | fraction unbound [9, 20]: 0.14
